Source: US12570606B2, “Myeloperoxidase imaging agents” (The General Hospital Corporation, priority 2016, dated 2026)
Where two headings read alike, the source gives them in different places.

What was measured:
[1] = Pharmacokinetics and biodistribution after i.v. injection; type: in vivo, wild-type C57BL/6 mice; details: for half-life: C57BL/6, mouse, blood, iv, i.v. tail vein
Procedure: The pharmacokinetic and biodistribution of Compound 9 was evaluated in wild-type C57BL/6 mice. After systemic intravenous (i.v.) injection via the tail vein, blood samples were collected to determine clearance rate of Compound 9 from the blood. The major organs of the mouse were harvested and the radioactivity was measured.

MPO [2] = biological target: T1, MPO (Mus musculus, UniProt P11247); assay: CFA paw inflammation PET imaging and treatment by MPO inhibitor PF-1355; type: in vivo; set-up: from tissue; host or cells: inflamed forepaw of living mice (CFA); details: forepaw, 24 h after CFA emulsion, scan 2 h after tracer
T1 sequence (P11247 139-718): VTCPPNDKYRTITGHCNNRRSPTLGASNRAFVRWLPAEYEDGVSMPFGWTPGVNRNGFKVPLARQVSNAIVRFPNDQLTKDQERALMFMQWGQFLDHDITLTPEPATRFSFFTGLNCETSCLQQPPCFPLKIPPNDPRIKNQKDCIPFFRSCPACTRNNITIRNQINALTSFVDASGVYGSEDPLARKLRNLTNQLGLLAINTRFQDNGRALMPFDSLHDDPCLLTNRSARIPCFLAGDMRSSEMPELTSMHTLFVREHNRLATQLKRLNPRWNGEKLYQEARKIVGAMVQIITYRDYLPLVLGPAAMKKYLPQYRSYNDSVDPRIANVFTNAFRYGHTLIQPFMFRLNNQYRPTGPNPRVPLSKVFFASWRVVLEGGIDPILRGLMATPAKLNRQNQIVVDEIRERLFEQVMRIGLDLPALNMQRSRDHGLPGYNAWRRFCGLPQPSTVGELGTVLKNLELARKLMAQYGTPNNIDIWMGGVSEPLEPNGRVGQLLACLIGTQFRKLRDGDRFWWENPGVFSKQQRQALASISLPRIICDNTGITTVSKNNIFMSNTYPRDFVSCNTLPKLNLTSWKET
Procedure: Each pair contained one treated and one untreated, number of pairs, n=3. The 1/1 emulsion of CFA/PBS (40 μL) was injected subcutaneously on the dorsal side of one forepaw under isoflurane anesthesia, and PBS (40 μL) was injected on the other forepaw as control. After 1 h, the treated group was given PF-1355 (50 mg/kg) by gavage, then treated every 6 h for another 3 times, and the control group was treated with vehicle (10 mL/kg) accordingly. After 24 h, 300-600 uCi of Compound 9 was injected intravenously. After another 2 h, each pair of the mice was scanned side by side.
After validating the efficacy of the MPO Compound 9 in matrigel experiments, the specificity of the agent in inflammation was investigated. Complete Freund's Adjuvant (CFA) or its emulsion can cause inflammation when injected subcutaneously to the animal. The CFA emulsion was injected to one dorsal side of the forepaw of the mouse and the other side was injected with PBS. After 24 h, Compound 9 was injected intravenously and scanned 2 h after injection. […] To further verify the specificity of the MPO Compound 9, the mice were treated with MPO inhibitor PF-1355 1 h after CFA emulsion injection and continuously every 6 h afterwards for 4 times before injecting the Compound 9. The control group was treated with vehicle after CFA injection. Then each pair of the mice from treated and untreated groups were scanned.

[3] = Blood brain barrier assay, PET brain uptake; type: in vivo, Female C57Bl/6J mice
Procedure: Female C57Bl/6J mice were injected intravenously with either 3′-deoxy-3′-^18F-fluorothymidine (FLT) or Compound 9 (300-600 μCi). The mice were imaged 2 hours after the PET tracers were injected.

MPO [4] = biological target: T2, MPO (Homo sapiens, UniProt P05164); assay: MPO-PET matrigel implantation imaging in mice; type: in vivo, mouse
T2 sequence (P05164 49-745): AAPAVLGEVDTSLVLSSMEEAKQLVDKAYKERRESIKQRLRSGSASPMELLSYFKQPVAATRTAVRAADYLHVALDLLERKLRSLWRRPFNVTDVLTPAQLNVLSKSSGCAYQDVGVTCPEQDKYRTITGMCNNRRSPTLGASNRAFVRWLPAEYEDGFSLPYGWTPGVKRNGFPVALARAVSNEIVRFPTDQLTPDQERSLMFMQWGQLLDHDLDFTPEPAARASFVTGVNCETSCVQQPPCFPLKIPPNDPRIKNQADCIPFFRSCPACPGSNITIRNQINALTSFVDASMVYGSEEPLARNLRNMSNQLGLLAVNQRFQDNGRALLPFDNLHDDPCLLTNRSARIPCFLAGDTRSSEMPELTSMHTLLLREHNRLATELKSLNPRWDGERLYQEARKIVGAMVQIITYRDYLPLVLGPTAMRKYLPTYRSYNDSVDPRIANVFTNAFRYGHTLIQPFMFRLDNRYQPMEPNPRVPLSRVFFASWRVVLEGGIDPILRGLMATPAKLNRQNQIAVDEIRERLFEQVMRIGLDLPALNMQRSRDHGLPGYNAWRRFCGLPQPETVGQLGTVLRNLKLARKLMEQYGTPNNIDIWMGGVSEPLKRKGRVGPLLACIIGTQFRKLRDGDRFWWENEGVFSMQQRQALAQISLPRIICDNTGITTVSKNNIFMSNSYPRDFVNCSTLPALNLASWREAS
Procedure: 300 μL of 1:1 mixture of matrigel and minimal essential medium (MEM) containing GOX and/or different concentrations of MPO (0, 15 μL, 30 μL) was injected subcutaneously into the ventral aspect of the thighs of the mouse. After 30 min, 300-600 μCi of MPO Compound 9 was injected intravenously. After 2 h, the mice were scanned using PET scanning.
To validate the efficacy of the MPO PET agents for in vivo applications, matrigel implantation experiments were performed by embedding MPO in matrigel along with glucose oxidase (GOX) as H2O2 donor. Matrigel is a gelatinous protein mixture that is liquid at 0° C. but forms a gel at body temperature while remaining diffusible to molecules from the bloodstream when injected into living animals (see e.g., Chen et al, Radiology, 2006, 240(2):473-481). The MPO/matrigel mixtures were injected subcutaneously to the thighs of the mice followed by injection of the MPO PET tracers 30 min later. […] The signal of MPO side was around 1.7 fold higher compared to that of control side.
To verify the specificity of Compound 9 over MPO, different concentrations of MPO (0, 15 μL, 30 μL) were embedded in matrigel for the implantation experiments.

[5] = Dynamic PET study of Compound 9 over 3 hours; type: in vivo, mouse; details: dynamic study over 3 hours

O=C(Cc1c[nH]c2ccc(O)cc12)NC(Cc1c[nH]c2ccc(O)cc12)C(=O)NCCOCCOCC[18F] (centres unmarked) [Compound 9]
half-life ([1]; two-phase exponential decay model, read-out: Blood short (fast) half-life): 0.26 min | half-life ([1]; two-phase exponential decay model, read-out: Blood slow half-life): 4.66 min | Biodistribution of radioactivity in organs ([1]; major organs harvested after i.v. injection): the liver and kidney showed the highest radioactivity, followed by bone and lymph | Share of clearance accounted for by the fast half-life ([1]; two-phase exponential decay model): 94.7% | PET signal of CFA side versus vehicle (PBS) injected side (MPO [2]): 4 fold | Uptake in the brain (SUV, FIG. 12) ([3]; 300-600 μCi i.v., imaged 2 hours after injection): higher uptake in the brain compared to FLT | Crossing of the blood brain barrier ([3]; intact BBB): can cross intact BBB | PET signal versus MPO concentration (MPO [4]; MPO 0, 15 μL, 30 μL embedded in matrigel): linear increase in signal | Background, organ uptake and defluorination (MPO [4]; matrigel PET imaging in mice): high ratio of signal to background, lower liver and heart uptake and no observed defluorination | PET signal of MPO side compared to control side (MPO [4]; matrigel with GOX+MPO vs GOX only in mouse thighs, scan 2 h after i.v. tracer): around 1.7 fold | Blood-brain barrier crossing (brain data) [5]: can cross the blood-brain barrier
